Measurements as given in patent US10543195B2, “Peptides for skin rejuvenation and methods of using the same” (Anteis SA, priority 2013, dated 2020).
* marks the point of attachment. Palmitoyl = CCCCCCCCCCCCCCCC(=O)*

Assays:
collagen I = conditions: ELISA, normal human dermal fibroblasts; cited from earlier work
collagen III = conditions: immunofluorescence, normal human dermal fibroblasts; cited from earlier work
hyaluronic acid [1] = assay: Hyaluronic acid ELISA in culture supernatant of NHDF; type: cell-based, human; conditions: 72 h
Excerpt: For the interpretation of the data related to the stimulation of the formation of extracellular matrix components as determined during the in vitro experiments, a “significant” stimulation of the formation of extracellular matrix components means a stimulation of at least 20% more than measured using a control material under identical experimental conditions. The control material is the identical material (here: assay medium) as used when testing the active (here: peptide(s)) but without the active(s).
Normal human dermal fibroblasts (NHDF); used at the 8th passage, were cultured in culture medium (DMEM supplemented with 10% fetal calf serum, 2 mM L-glutamine, 50 U/ml penicillin, and 50 μg/ml streptomycin) in 96-well plates for 24 h at 37° C. and 5% CO2.
Afterwards, the culture medium was removed and replaced by assay medium (DMEM culture medium supplemented with 2% fetal calf serum, 2 mM L-glutamine, 50 U/ml penicillin, and 50 μg/ml streptomycin) containing the test peptides or not (control). The cells were then incubated for 72 h. All experimental conditions were performed 3-times (n=3). At the end of the incubation, culture supernatants were collected and immediately frozen at about −80° C.
Hyaluronic acid was quantified in the culture supernatant using the Duoset Hylaluronan ELISA kit (R&D Systems Ref. DY3614, 0.37 ng/ml as low detection limit) according to the provider's specifications.
This evaluation was realized with non-cytotoxic concentrations of the test peptides. Cytotoxicity of the test peptides in the assay medium was previously determined in NHDF by the MTT reduction assay and morphological observations with help of microscope after a 72 h incubation time.

human skin explants = conditions: 3H-proline-incorporation; cited from earlier work
rat experimental wounds = conditions: cited from earlier work
collagen I (alpha 1) = assay: RT-qPCR gene expression in NHDF: collagen I (alpha 1); type: cell-based, human; conditions: 24 h, vs control; for stimulation of formation of collagen I (alpha 1) (mRNA, RT-qPCR): 300 ppm (0.03%)
Protocol: (§1) Normal human dermal fibroblasts (NHDF); used at the 8th passage, were cultured in culture medium (DMEM supplemented with 10% fetal calf serum, 2 mM L-glutamine, 50 U/ml penicillin, and 50 μg/ml streptomycin) in 24-well plates for 48 h at 37° C. and 5% CO2 with a renewal of culture medium after 24 h. The culture medium was then removed, replaced by assay medium (DMEM culture medium supplemented with 1% fetal calf serum, 2 mM L-glutamine, 50 U/ml penicillin, and 50 μg/ml streptomycin) and the cells were further incubated for 24 h. The cells were then treated with the test peptides, or not (control), or with the reference TGF-beta 1 and incubated for 24 h. All experimental conditions were performed 4-times (n=4). At the end of the incubation, the cells were washed in PBS solution and immediately frozen at about −80° C. The expression of the markers was analyzed using quantitative real time polymerase chain reaction (RT-qPCR) method on mRNA extracted from the cell monolayers for each treatment; whereby the replicates were pooled before RNA extraction. Analysis of gene expression was performed in duplicate (n=2) using a PCR array. Total RNA was extracted from each sample using TriPure Isolation Reagent® according to the supplier's instructions. The amount and quality of RNA were evaluated using a lab-on-a-chip Bioanalyzer (Agilent Technologies). […] Quantification of cDNA was performed using Nanovue (GE Healthcare) and cDNA was adjusted. […]
(§2) The incorporation of the fluorescence in amplified DNA was continuously measured during the PCR cycles. […] The value selected for RE calculations is the “output point” (Ct) of the fluorescence curve. For a considered marker, the highest is the cycle number; the lowest is the mRNA quantity. […]
(§3) This evaluation was realized with non-cytotoxic concentrations of the test peptides. Cytotoxicity of the test peptides in the assay medium was previously determined in NHDF by the MTT reduction assay and morphological observations with help of microscope after a 24 h incubation time. […]

collagen III (alpha 1) = assay: RT-qPCR gene expression in NHDF: collagen III (alpha 1); type: cell-based, human; conditions: 24 h, vs control; for stimulation of formation of collagen III (alpha 1) (mRNA, RT-qPCR): 300 ppm (0.03%)
Protocol: as §1, §2, §3

collagen V (alpha 1) = assay: RT-qPCR gene expression in NHDF: collagen V (alpha 1); type: cell-based, human; conditions: 300 ppm (0.03%), 24 h, vs control
Protocol: as §1, with “All experimental conditions were performed 4-times (n=4). At the end of the incubation, the cells were washed in PBS solution and immediately frozen at about −80° C.” left out, “Analysis of gene expression was performed in duplicate (n=2) using a PCR array. Total RNA was extracted from each sample using TriPure Isolation Reagent® according to the supplier's instructions.” left out
as §2

collagen VI (alpha 1) = assay: RT-qPCR gene expression in NHDF: collagen VI (alpha 1); type: cell-based, human; conditions: 300 ppm (0.03%), 24 h, vs control
Protocol: as §1, with “All experimental conditions were performed 4-times (n=4). At the end of the incubation, the cells were washed in PBS solution and immediately frozen at about −80° C.” left out, “Analysis of gene expression was performed in duplicate (n=2) using a PCR array. Total RNA was extracted from each sample using TriPure Isolation Reagent® according to the supplier's instructions.” left out
as §2

collagen VII (alpha 1) = assay: RT-qPCR gene expression in NHDF: collagen VII (alpha 1); type: cell-based, human; conditions: 300 ppm (0.03%), 24 h, vs control
Protocol: as §1, with “All experimental conditions were performed 4-times (n=4). At the end of the incubation, the cells were washed in PBS solution and immediately frozen at about −80° C.” left out, “Analysis of gene expression was performed in duplicate (n=2) using a PCR array. Total RNA was extracted from each sample using TriPure Isolation Reagent® according to the supplier's instructions.” left out
as §2

collagen XVI (alpha 1) = assay: RT-qPCR gene expression in NHDF: collagen XVI (alpha 1); type: cell-based, human; conditions: 300 ppm (0.03%), 24 h, vs control
Protocol: as §1, with “All experimental conditions were performed 4-times (n=4). At the end of the incubation, the cells were washed in PBS solution and immediately frozen at about −80° C.” left out, “Analysis of gene expression was performed in duplicate (n=2) using a PCR array. Total RNA was extracted from each sample using TriPure Isolation Reagent® according to the supplier's instructions.” left out
as §2

elastin = assay: RT-qPCR gene expression in NHDF: elastin; type: cell-based, human; conditions: 300 ppm (0.03%), 24 h, vs control
Protocol: as §1, with “All experimental conditions were performed 4-times (n=4). At the end of the incubation, the cells were washed in PBS solution and immediately frozen at about −80° C.” left out, “Analysis of gene expression was performed in duplicate (n=2) using a PCR array. Total RNA was extracted from each sample using TriPure Isolation Reagent® according to the supplier's instructions.” left out
as §2

laminin (alpha 4) = assay: RT-qPCR gene expression in NHDF: laminin (alpha 4); type: cell-based, human; conditions: 300 ppm (0.03%), 24 h, vs control
Protocol: as §1, with “All experimental conditions were performed 4-times (n=4). At the end of the incubation, the cells were washed in PBS solution and immediately frozen at about −80° C.” left out, “Analysis of gene expression was performed in duplicate (n=2) using a PCR array. Total RNA was extracted from each sample using TriPure Isolation Reagent® according to the supplier's instructions.” left out
as §2

hyaluronan synthase 2 = assay: RT-qPCR gene expression in NHDF: hyaluronan synthase 2; type: cell-based, human; conditions: 300 ppm (0.03%), 24 h, vs control
Protocol: as §1, with “All experimental conditions were performed 4-times (n=4). At the end of the incubation, the cells were washed in PBS solution and immediately frozen at about −80° C.” left out, “Analysis of gene expression was performed in duplicate (n=2) using a PCR array. Total RNA was extracted from each sample using TriPure Isolation Reagent® according to the supplier's instructions.” left out
as §2

fibrillin 1 = assay: RT-qPCR gene expression in NHDF: fibrillin 1; type: cell-based, human; conditions: 300 ppm (0.03%), 24 h, vs control
Protocol: as §1, with “All experimental conditions were performed 4-times (n=4). At the end of the incubation, the cells were washed in PBS solution and immediately frozen at about −80° C.” left out, “Analysis of gene expression was performed in duplicate (n=2) using a PCR array. Total RNA was extracted from each sample using TriPure Isolation Reagent® according to the supplier's instructions.” left out
as §2

[2] = system: heparan sulfate protoglycan 2; assay: RT-qPCR gene expression in NHDF: heparan sulfate protoglycan 2; type: cell-based, human; conditions: 300 ppm (0.03%), 24 h, vs control
Protocol: as §1, with “All experimental conditions were performed 4-times (n=4). At the end of the incubation, the cells were washed in PBS solution and immediately frozen at about −80° C.” left out, “Analysis of gene expression was performed in duplicate (n=2) using a PCR array. Total RNA was extracted from each sample using TriPure Isolation Reagent® according to the supplier's instructions.” left out
as §2

hyaluronic acid [3] = conditions: oil-in-water vehicle containing 50 ppm GEKG for sixty days; cited from earlier work

## palmitoyl-KMO2K—OH
Collagen I
  increase of collagen I formation: 111%
Collagen III
  increase of collagen III formation: 104%

## Palmitoyl-Gly-His-Lys-OH [Palmitoyl-GHK]
Hyaluronic acid [1]; alone at 10 or 30 ppm
  stimulation of synthesis of hyaluronic acid: up to 11%
Human skin explants
  increase of collagen synthesis: up to 75.3%

## Gly-His-Lys [GHK]
Rat experimental wounds
  collagen accumulation: no effect

## CCCCCCCC(=O)NCCC(=O)NC(Cc1cnc[nH]1)C(=O)O (stereo not drawn) [Octanoyl Carnosine, Octanoyl-beta-Ala-His-OH]
Collagen I (alpha 1)
  stimulation of formation of collagen I (alpha 1) (mRNA, RT-qPCR): 38%
Collagen III (alpha 1)
  stimulation of formation of collagen III (alpha 1) (mRNA, RT-qPCR): 120%
Collagen V (alpha 1)
  stimulation of formation of collagen V (alpha 1) (mRNA, RT-qPCR): 35%
Collagen VI (alpha 1)
  stimulation of formation of collagen VI (alpha 1) (mRNA, RT-qPCR): 46%
Collagen VII (alpha 1)
  stimulation of formation of collagen VII (alpha 1) (mRNA, RT-qPCR): 97%
Collagen XVI (alpha 1)
  stimulation of formation of collagen XVI (alpha 1) (mRNA, RT-qPCR): 91%
elastin
  stimulation of formation of elastin (mRNA, RT-qPCR): 51%
Laminin (alpha 4)
  stimulation of formation of laminin (alpha 4) (mRNA, RT-qPCR): 20%
Hyaluronan synthase 2
  stimulation of formation of hyaluronan synthase 2 (mRNA, RT-qPCR): 23%
Fibrillin 1
  stimulation of formation of fibrillin 1 (mRNA, RT-qPCR): 23%
[2]
  stimulation of formation of heparan sulfate protoglycan 2 (mRNA, RT-qPCR): 79%
Hyaluronic acid [1]; alone at 100 pm
  stimulation of synthesis of hyaluronic acid: −5%

## NCCC(=O)N[C@@H](Cc1cnc[nH]1)C(=O)O [beta-alanyl-histidine]
Collagen I (alpha 1)
  stimulation of formation of collagen I (alpha 1) (mRNA, RT-qPCR): 28%
Collagen III (alpha 1)
  stimulation of formation of collagen III (alpha 1) (mRNA, RT-qPCR): 24%

## NH2-Gly-Glu-Lys-Gly-OH (H-GEKG-OH)
Hyaluronic acid [1]; alone at 100 or 300 ppm
  stimulation of synthesis of hyaluronic acid: up to 25%
Hyaluronic acid [3]
  hyaluronic acid formation: stimulate hyaluronic acid formation

## TGF-beta 1: reference TGF-beta 1 (10 ng/ml) in the gene expression test
Collagen I (alpha 1); 10 ng/ml
  stimulation of formation of collagen I (mRNA, RT-qPCR): 245%
Collagen III (alpha 1); 10 ng/ml
  stimulation of formation of collagen III (mRNA, RT-qPCR): 164%

## GHK-Cu
Rat experimental wounds
  collagen accumulation: statistical significant increase of collagen accumulation
